Measured values as given in patent US20130005759A1, “SMALL MOLECULE MODIFIERS OF MICRORNA MIR-122” (North Carolina State University, priority 2010, published 2013).

Tests used:
[1] = system: psiCHECK-control vector (no miRNA target sequence); assay: psiCHECK-control vector luciferase counter-assay in Huh7 cells; assay type: cell-based, human; settings: Huh7, 10 μM
Source text: (FIG. 3). […] The relative luciferase units were normalized to the corresponding DMSO signals. […] This confirms that compound 2 and the antagomir have similar effects on the reduction of miR-122 function in Huh7 cells.
Compounds which elicited greater than a 5-fold increase of the relative luciferase units signal compared to the DMSO control were then re-assayed in triplicate to confirm the validity of the hit compound. Upon secondary validation of miR-122 inhibition, identical assays were repeated with the psiCHECK-Control vector to ascertain that the effect is specific to the miR-122 pathway, and not simply affecting the Renilla gene. In order to assess the relative degree of miR-122 inhibition, Huh7 cells were also co-transfected with either the psiCHECK-Control plasmid or the psiCHECK-miR122 plasmid (0.5 μg) and a miR-122 2′-OMe PS antagomir (50 pmol; 5′ […] (SEQ ID NO:4) 3′; IDT DNA)(2) using the X-tremGENE transfection reagent (Roche Applied Science, 4:2 reagent/DNA ratio). The transfection media was replaced with standard DMEM growth media after 4 hours and the cells were incubated for 48 hours prior to analysis with a Dual Luciferase Assay Kit (FIG. 3).

[2] = system: miR-21; assay: miR-21 luciferase reporter assay in HeLa-miR-21-Luc cells; assay type: cell-based; settings: 10 μM, 48 hours
Procedure: Using the previously described HeLa-miR-21-Luc cell line (a stably transfected line harboring a miR-21 binding sequence in the 3′ UTR of a firefly luciferase gene),(9) cells were grown to 80% confluency (DMEM) and treated with either DMSO, the previously reported miR-21 inhibitor, or compounds 1 and 2 at 10 μM (1% DMSO final concentration). The cells were incubated for 48 hours at 37° C. (5% CO2) and then assayed with a Bright-Glo Luciferase Kit (Promega) and analyzed using a Wallac VICTOR^3V luminometer with a measurement time of 1 s and a delay time of 2 s (FIG. 4).

[3] = system: miR-122; assay: quantitative RT PCR of mature miR-122 in Huh7 cells; assay type: cell-based, human; settings: Huh7, 10 μM, 48 hours
Procedure: (§1) The activity of the small molecule modifiers was analyzed by quantitative RT PCR in order to measure their direct effects on miR-122 expression levels in Huh7 cells. […] All experiments were conducted in triplicate, and the data was normalized to a DMSO control.
Each treatment was conducted in triplicate to ensure statistical validity. Cells were then incubated at 37° C. for 48 hours (DMEM, 5% CO2). The media was removed, and cells were washed with PBS buffer (2×2 mL, pH 7.4) followed by RNA isolation with the mirPremier™ microRNA Isolation Kit (Aldrich). The RNA was quantified using a Nanodrop ND-1000 spectrophotometer and 10 ng of each RNA sample was reverse transcribed using the TaqMan™ microRNA Reverse Transcription Kit (Applied Biosystems) in conjunction with either the miR-122 or miR-21 TaqMan™ RT primer (16° C., 30 min; 42° C., 30 min; 85° C., 5 min). Quantitative Real Time PCR was conducted with a TaqMan™ 2× Universal PCR Master Mix and the appropriate TaqMan™ miRNA assay (Applied Biosystems) on a BioRad MyiQ RT-PCR thermocycler (1.3 μL RT PCR product; 95° C., 10 min; followed by 40 cycles of 95° C., 15 s; 60° C. 60 s). Threshold cycles were used to determine miRNA copy numbers, and the levels of miR-122 and miR-21 were compared via determination of threshold cycle (Ct) and conversion to copy number (copy number=10[(Ct−37.4)/−3.3]).^17 The data was then normalized to the DMSO control. The samples were also analyzed by real time PCR for the presence of pri-miR-122 transcript using the previously described primers (5′ […] 3′ (SEQ ID NO:5) and 5′ […] 3′ (SEQ ID NO:6); IDT DNA) and iQ SYBR Green Supermix for the real time PCR (95° C., 3 min; followed by 40 cycles of 95° C., 15 s; 60° C. 60 s).^14

[4] = system: pri-miR-122; assay: quantitative RT PCR of pri-miR-122 in Huh7 cells; assay type: cell-based, human; settings: Huh7, 10 μM, 48 hours, normalized to DMSO
Procedure: as §1
Each treatment was conducted in triplicate to ensure statistical validity. Cells were then incubated at 37° C. for 48 hours (DMEM, 5% CO2). The media was removed, and cells were washed with PBS buffer (2×2 mL, pH 7.4) followed by RNA isolation with the mirPremier™ microRNA Isolation Kit (Aldrich). The RNA was quantified using a Nanodrop ND-1000 spectrophotometer and 10 ng of each RNA sample was reverse transcribed using the TaqMan™ microRNA Reverse Transcription Kit (Applied Biosystems) in conjunction with either the miR-122 or miR-21 TaqMan™ RT primer (16° C., 30 min; 42° C., 30 min; 85° C., 5 min). Quantitative Real Time PCR was conducted with a TaqMan™ 2× Universal PCR Master Mix and the appropriate TaqMan™ miRNA assay (Applied Biosystems) on a BioRad MyiQ RT-PCR thermocycler (1.3 μL RT PCR product; 95° C., 10 min; followed by 40 cycles of 95° C., 15 s; 60° C. 60 s). […]

Row | Compound | normalized Renilla luciferase signal with psiCHECK-control vector [1] | activity in miRNA-21 reporter (luciferase signal) [2] | knock-down of mature miR-122 levels relative to DMSO treated cells [3] | pri-miR-122 down-regulation to (remaining level) [4]
1 | O=C(Nc1ccc2ccccc2c1)c1ccc(Cl)cc1Cl [Compound 1] | no statistically significant alteration | no activity was found | 45% | 22%
2 | O=S(=O)(c1ccc2c(c1)CCCN2)N1CCC[C@H]2CCCC[C@@H]21 [Compound 2] | no statistically significant alteration | no activity was found | 72% | 3%
